This is an account of results in a melting point compilation (Tetko et al.; mined from patent text by program, amines drawn as free bases though some values may be those of a salt).

In turn, `CC(OC(=O)OCC(=O)N(C)C)OC(=C1C(=O)N(C(N)=O)c2cc(Cl)c(F)cc21)c1cccs1` (stereo unspecified) displayed a melting point of 194 to 196 °C.
The figure for `O=C(Nc1ccc(-c2ccccc2)cc1)c1ccc2n1Cc1ccccc1N(C(=O)COc1ccc(Cl)cc1)C2` is 201 to 202 °C; for `Clc1cn2cc(Br)ccc2n1` it is 155 to 159 °C; for `C=CCNc1nnc(-c2ccc(F)c(F)c2Nc2ccc(I)cc2F)o1` it is 175 to 178 °C.
The compound `Nc1ccc2c(c1)-c1ccccc1S2=O` (stereo unspecified) displayed a melting point of 169 to 172 °C.
On to `CCOc1nc(Nc2cccc(C(F)(F)F)c2)nc(N2CCN(C(=O)c3ccn(CC)n3)CC2)n1`, for which the melting point is 145 to 148 °C.
The compound `CCN(CC)Cc1ccc(-c2cccc(-c3ccnc4c(C(=O)c5cccs5)cnn34)c2)cc1` came in with a melting point of 144 to 146 °C.
As to `COc1cc2c(Nc3ccc(Cl)cc3F)ncnc2cc1OCCS(C)(=O)=O`, the melting point was in the range of 227 to 230 °C.
`CCOC(=O)C(=CNc1nnc(-c2cccnc2)s1)C(=O)OCC` had a melting point of 144 to 145 °C.
The figure for `C=CC(=O)OCCCCCCOc1ccc(C(=O)O)cc1` is 139 °C; for `O=C(Nc1cccnc1S(=O)(=O)c1ccc(Cl)cc1)N[C@@H](Cc1ccc(NC(=O)c2c(Cl)cccc2Cl)cc1)C(=O)O` it is 181 °C.
The compound `CC(C)CC(=O)NC(=O)c1nnn(Cc2ccccc2)c1NC(=O)CC(C)C` gave a melting point of 125 to 128 °C.
In the case of `CN(C)CCc1[nH]c2ccc(Br)cc2c1CSc1ccccc1`, the melting point was in the range of 112 to 115 °C.
As for `Cc1oc(-c2ccc(Cl)cc2)cc1C(=O)NCc1ccc2cc(OCC(=O)O)ccc2c1`, the melting point lay in the range of 177 to 181 °C.
In turn, `Cn1c(CC(=O)O)ccc1C(=O)c1ccccc1` registered a melting point of 144 to 145 °C.
As to `O=C(c1ccccc1)c1c[nH]c2ccc(OCc3ccc4ccccc4n3)cc12`, the melting point lay in the range of 214 to 216 °C.
Turning to `CC1(C)CCC(C)(C)c2cc(-c3cc(-c4ccc(C(=O)O)cc4)ccc3OCCNC3CC3)ccc21`, the melting point was 233 °C.
As for `CN(c1ccccc1)c1nc(Cl)nc(N2CCOCC2)n1`, the melting point fell in the range of 93.5 to 95.5 °C.
Next, `OC1CSC(Oc2cccc(-c3ncccc3F)c2)C(O)C1O` (stereo unspecified): 150 °C.
The compound `Cc1nnc2ccc(-c3cccc(CC(=O)NC(C)C)c3)nn12` came in with a melting point of 197 to 200 °C.
The figure for `Fc1ccc2c(c1)C(c1ccccc1F)=NCCN2C1=NCCO1` is 180 to 181 °C; for `N#Cc1c2c(c3c(c1N1CCCC1)Cc1ccccc1-3)Cc1ccccc1-2` it is 158 to 160 °C.
Next, `O=C(O)c1cccc(-c2ccn(-c3ccc(OC(F)F)cc3)n2)c1`: 182 to 183 °C; `COc1ccc(-c2cc3ccc(C)cc3s2)cc1`: 198 to 200 °C; `O=C(O)CCNC(=O)C(CS)C(F)(F)F` (stereo unspecified): 108 to 110 °C.
Compound `CN(C)c1ccc(CNc2ccc(C(F)(F)F)cc2[N+](=O)[O-])cc1` came in with a melting point of 158 to 160 °C.
The figure for `CCCCc1nc2ccn(Cc3cccc(C(=N)N)c3)c(=O)c2n1Cc1ccc2ccc(C(=N)N)cc2c1` is 190 to 191 °C.
Next, `O=S1CCc2nn(-c3ccc(Cl)cc3F)c(Cl)c2C1` (stereo unspecified): 119 to 122 °C; `Cc1oc2c(NC(=O)c3c(Cl)ccc(CO)c3Cl)cccc2c1C`: 258 to 261 °C.
`COC(=O)c1ccc(Cn2ncc3ccccc32)cc1` yielded a melting point of 89 to 90 °C.
`CCCCCNC(=O)Nc1ccccc1C(=O)NCCC1CCN(C(c2ccccc2)c2ccccc2)CC1` yielded a melting point of 124 to 127 °C.
On to `CC(=O)NC1CCN(c2ccccn2)CC1`, for which the melting point lay within 165 to 168 °C.
In the case of `N#CC(Nc1ccccc1C(=O)C1CC1)c1c(Cl)cccc1Cl` (stereo unspecified), the melting point amounted to 144 °C.
Next, `CCOC(=O)c1cc(-c2ccc(-c3ccco3)cc2)n(-c2ccc(S(C)(=O)=O)c(F)c2)n1`: 172 °C; `CCN1c2ccccc2NC(=O)c2cscc21`: 201 to 202 °C; `O=C(CC(=O)C1CC1)Nc1ccc(C(F)(F)F)cc1`: 131 to 132 °C.
The figure for `CNC(=O)c1ccc(C=CC(=O)Nc2cccc(-c3ccc(C)c(COc4cccc5ccc(C)nc45)c3C)c2)cc1` is 234 to 238 °C; for `O=C(Nc1ccccc1O)C(F)(F)C(O)(Cn1cncn1)c1ccc(F)cc1F` (stereo unspecified) it is 121 to 126 °C; for `CCCCCCCCCC1(C)NC(=S)NC1=S` (stereo unspecified) it is 88 to 89 °C.
On to `C=C(C)C(=O)NCC(C)OC(=O)C(Br)(Br)Br` (stereo unspecified), for which the melting point is 104 to 105 °C.
Compound `CC(=O)C1=C(Nc2ccc(C3=NNC(=O)CC3)cc2)CC(C)(C)CC1=O` registered a melting point of 212 to 214 °C.
In the case of `CCCCCC(Oc1ccc(C2=CCCCC2)cc1)C(=O)O` (stereo unspecified), the melting point lay in the range of 78 to 80 °C.
The figure for `CC(CCc1cccc(Cl)c1)NC(=O)n1nc(N(C)C)n(N)c1=O` (stereo unspecified) is 74 °C; for `CN(C)C(=O)N[C@H]1CC[C@H](CCN2CCN(c3cccc(Cl)c3Cl)CC2)CC1` it is 212 to 214 °C; for `CCS(=O)(=O)c1cc(OCCCCCCc2cccc(OCCCC(=O)O)c2CCC(=O)O)cc(-c2ccc3c(c2)OCO3)c1` it is 134 to 135 °C.
In the case of `Cc1ccc(CC(CC(=O)Oc2ccc([N+](=O)[O-])cc2)C(=O)Oc2ccc([N+](=O)[O-])cc2)cc1` (stereo unspecified), the melting point fell in the range of 97 to 98 °C.
`N#CC=Cc1ccc([N+](=O)[O-])cc1` showed a melting point of 112 °C.
Consider `CCC1(CC)OC(=S)Nc2ccc(-c3cccc(Cl)c3)cc21`, for which the melting point was 148 to 150 °C.
`Cc1cccc(OC(=O)c2ccccc2)c1` displayed a melting point of 51 to 54 °C.
As to `O=C(Nc1ccnc(C(=O)NO)c1)c1ccccc1`, the melting point was 175 to 184 °C.
On to `O=C(O)c1ccc(S(=O)(=O)Cc2c(O[C@H](Cn3ccnc3)c3ccccc3)ccc3c2CCCC3=O)cc1`, for which the melting point came to 250 °C.
In the case of `CCOC(=O)C(=CNc1sc(I)cc1C(=O)OC)C(=O)OCC`, the melting point was 163 to 164 °C.
`CCCCNc1c(C(=O)OCC)c(C)nc2c1nnn2CC` gave a melting point of 42 to 43 °C.
`O=C(N[C@H]1CCCNC1=O)c1cccc(F)c1F`: the melting point was in the range of 160 to 162 °C.
`Cc1ncc2c(c1O)COC2(C)c1ccccc1` (stereo unspecified) had a melting point of 245 °C.
On to `CC1(C)N=C(CCO)C2=C(N1)N(Cc1ccccc1)C(=O)C(N)O2` (stereo unspecified), for which the melting point fell in the range of 124 to 126 °C.
The figure for `COC(=O)[C@H](c1ccccc1Cl)N1CCc2sc(OC(=O)C=Cc3ccccc3)cc2C1` is 122 to 124 °C.
On to `CC(=NN(C)c1ccc(C(F)(F)F)cc1)C(=O)NCc1ccc(Cl)cc1`, for which the melting point lay in the range of 112 to 113 °C.
The figure for `CCC1c2cc(F)ccc2-c2cc(-c3ccccc3)ccc2N1S(=O)(=O)c1ccc(O)cc1` (stereo unspecified) is 207 °C; for `Cc1cc(-n2ccnc2)c2cccc(OCc3c(Cl)ccc(S(=O)(=O)N4CCC[C@H]4C(=O)N4CCN(c5ccncc5)CC4)c3Cl)c2n1` it is 136 °C.
Regarding `CCn1nc(Cc2ccc(N)cc2)oc1=O`, the melting point fell in the range of 88 to 89 °C.
The figure for `COc1ccccc1OCC(O)CN1CCCC(Cn2c(=O)[nH]c3ccccc32)C1` (stereo unspecified) is 158 °C; for `O=C1Cc2cc(C(=O)[C@H]3CC[C@H]3C(=O)O)ccc2N1` (relative stereo) it is 211 to 212 °C.
In turn, `C=CCc1ccc2oc(C(=O)c3ccc(OC)cc3)c(C)c2c1O` came in with a melting point of 48 to 50 °C.
Compound `CC(C)(C)c1ccc(N)nn1` registered a melting point of 125 to 132 °C.
As for `CC(C)c1cccc2c1C(=O)N(COC(=O)c1c(Cl)ccc(OCC(=O)O)c1Cl)S2(=O)=O`, the melting point is 210 to 212 °C.
In turn, `CCOC(=O)c1c(CN(CC)CC)nc2sc3c(c2c1-c1ccc(OC)c(OC)c1)CCCN3C(=O)OCc1ccccc1` gave a melting point of 138 to 139 °C.
`c1cc(N2CCOCC2)c2c(c1)-n1cnc(-c3nc(C4CC4)no3)c1N1CCN=C21`: the melting point was in the range of 217 to 220 °C.
As for `O=c1cc(-c2nnn[nH]2)occ1-c1ccccc1`, the melting point was in the range of 237 to 238 °C.
The figure for `O=C(O)c1nc2c(NCc3ccccc3)ncnc2n1C1OC(CO)C(O)C1O` (stereo unspecified) is 125 to 127 °C; for `CC1CC(C)CN(C(=O)c2ccc([N+](=O)[O-])cc2)C1` (stereo unspecified) it is 120 to 125 °C.
In the case of `CCONC(=O)c1cc(Br)c(Br)s1`, the melting point lay within 117 to 119 °C.
Regarding `Cc1ccc(-c2cc3c4cc(C)ccc4n(C)c3n(C)c2=O)c(C)c1`, the melting point was found to be 150 °C.
The compound `O=Cc1cc2n(n1)-c1ccc(Cl)cc1C(c1ccccc1)NC2=O` (stereo unspecified) returned a melting point of 276 to 278 °C.
In turn, `CC(=O)N1CC(CCN2CCC(c3ccc(C(F)(F)F)cc3)CC2)c2ccccc21` (stereo unspecified) had a melting point of 98 to 100 °C.
In the case of `CC(=O)SCC(C(=O)Nc1oc(CCC(=O)O)c2ccccc12)C(F)(F)F` (stereo unspecified), the melting point is 139 to 140 °C.
`COc1ccc2c(C=O)c(OCc3ccccc3)ccc2c1` came in with a melting point of 115 to 117 °C.
The compound `NC(=S)c1c(Cl)c(-c2cccnc2)n2c1CN(C(=O)Nc1ccc(F)cc1)CC2` displayed a melting point of 214 to 216 °C.
`O=C1C2CCCCN2C(=S)N1c1ccc(F)cc1F` (stereo unspecified) displayed a melting point of 159 to 160 °C.
In the case of `Cc1ccc(C)c(-c2nsc3ccccc23)c1`, the melting point was determined as 87 °C.
Next, `C#CCS(=O)c1ncc(Cl)cn1` (stereo unspecified): 92 °C; `CCCCCc1cc2c(nc(O)n2CC2CCN(S(=O)(=O)CC)CC2)c(N)n1`: 222 to 225 °C.
For `Cc1ccc(S(=O)(=O)N2CCCC2c2ccccc2F)cc1` (racemic), the melting point was 143 °C.
Consider `COc1c(C)c(OC(=O)c2c(C)c(C)c(OCCCN3C(=O)c4ccccc4S3(O)O)c(C)c2OC)c(C)c(C)c1C(=O)O`, for which the melting point is 222 to 223 °C.
Regarding `COC(=O)c1cccc(-c2nc(COc3ccc(COc4nn(-c5ccccc5)cc4C=O)cc3)c(C)o2)c1`, the melting point fell in the range of 161 to 162 °C.
Next, `COc1cc(C(=O)CCCC2CCCCC2)c(OC)cc1C`: 53.5 to 54.5 °C.
